Laboratory results reported in US6177438A, “Morphinan derivatives and pharmaceutical use thereof” (priority 1993, dated 2001).
Where a name gives a salt, the structure may show the parent alone.

These molecules were tested on acetic acid-induced writhing in ddy mice (assay: animal or person). Conditions: Mus musculus, sc, s.c. 15 minutes before acetic acid, read-out: ED50.
Format: in vivo, 5 week old ddy mice
Procedure: 5 week old ddy mice were used in this test. After intraperitoneal administration of 0.1 ml of 0.6% aqueous acetic acid per 10 g of body weight, the number of writhing reactions that occurred in 10 minutes starting 10 minutes after administration was evaluated for the indicator. The test drug was administered subcutaneously into the backs of the animals 15 minutes before administration of acetic acid.

| SMILES | ED50 |
| --- | --- |
| Cc1ccc(/C=C/C(=O)N(C)[C@@H]2CC[C@@]3(O)[C@H]4Cc5ccc(O)c6c5[C@@]3(CCN4CC3CC3)[C@H]2O6)o1.Cl (relative stereo) [Compound 158, 17-cyclopropylmethyl-3,14β-dihydroxy-4,5α-epoxy-6β-[N-methyl-trans-3-(5-methyl-2-furyl)acrylamido]morphinan hydrochloride] | 0.0071 mg/kg |
| COCCOC(=O)N(C)[C@@H]1CC[C@@]2(O)[C@H]3Cc4ccc(O)c5c4[C@@]2(CCN3CC2CC2)[C@H]1O5 [Compound 67, 17-cyclopropylmethyl-3,14β-dihydroxy-4,5α-epoxy-6β-(N-methyl-2-methoxyethoxycarbamido)morphinan.cndot.tartrate] | 0.36 mg/kg |
| CN(C(=O)C#Cc1ccoc1)[C@@H]1CC[C@@]2(O)[C@H]3Cc4ccc(O)c5c4[C@@]2(CCN3CC2CC2)[C@H]1O5.O=C(O)C(O)C(O)C(=O)O [Compound 177, 17-cyclopropylmethyl-3,14β-dihydroxy-4,5α-epoxy-6β-[N-methyl-(3-furyl)propiolamido]morphinan tartrate] | 0.0096 mg/kg |
| CN([C@H]1CC[C@@]2(O)[C@H]3Cc4ccc(O)c5c4[C@@]2(CCN3CC2CC2)[C@H]1O5)S(=O)(=O)Cc1ccc(Cl)c(Cl)c1 [Compound 128, 17-cyclopropylmethyl-4,5α-epoxy-3,14β-dihydroxy-6α-(N-methyl-3,4-dichlorophenylmethanesulfonamido)morphinan.cndot.tartrate] | 0.63 mg/kg |
| CN(C(=S)NCc1ccccc1)[C@H]1CC[C@@]2(O)[C@H]3Cc4ccc(O)c5c4[C@@]2(CCN3CC2CC2)[C@H]1O5 [Compound 133, 17-cyclopropylmethyl-3,14β-dihydroxy-4,5α-epoxy-6α-(N-methyl-N'-benzylthioureido)morphinan.cndot.tartrate] | 0.044 mg/kg |
| CC(=O)O[C@@]12CC[C@@H](N(C)C(=O)/C=C/c3ccccc3)[C@@H]3Oc4c(O)ccc5c4[C@@]31CCN(CC1CC1)[C@@H]2C5 [Compound 144, 17-Cyclopropylmethyl-3-hydroxy-14β-acetoxy-4,5α-epoxy-6β-(N-methylcinnamamido)morphinan.cndot.tartrate] | 0.024 mg/kg |
| COc1ccc2c3c1O[C@H]1[C@H](N(C)C(=O)/C=C/c4ccoc4)CC[C@@]4(O)[C@@H](C2)N(CC2CC2)CC[C@]314 [Compound 217, 17-cyclopropylmethyl-4,5α-epoxy-14β-hydroxy-3-methoxy-6β-[N-methyl-trans-3-(3-furan)acrylamido]morphinan hydrochloride] | 0.018 mg/kg |
| CN(C(=O)Cc1ccccc1)[C@@H]1CC[C@@]2(O)[C@H]3Cc4ccc(O)c5c4[C@@]2(CCN3CC2CC2)[C@H]1O5 [Compound 55, 17-cyclopropylmethyl-3,14β-dihydroxy-4,5α-epoxy-6β-(N-methylphenylacetamido)morphinan.cndot.hydrochloride] | 0.98 mg/kg |
| Br.CN(C(=O)/C=C/c1cc(Br)cs1)[C@@H]1CC[C@@]2(O)[C@H]3Cc4ccc(O)c5c4[C@@]2(CCN3CC2CC2)[C@H]1O5 (relative stereo) [Compound 157, 17-cyclopropylmethyl-3,14β-dihydroxy-4,5α-epoxy-6β-[N-methyl-trans-3-(4-bromo-2-thienyl)acrylamido]morphinan hydrobromide] | 0.003 mg/kg |
| CN(C(=O)C#Cc1ccco1)[C@H]1CC[C@@]2(O)[C@H]3Cc4ccc(O)c5c4[C@@]2(CCN3CC2CC2)[C@H]1O5.O=C(O)C(O)C(O)C(=O)O [Compound 186, 17-cyclopropylmethyl-3,14β-dihydroxy-4,5α-epoxy-6α-[N-methyl-3-(2-furyl)propiolamido]morphinan tartrate] | 0.0061 mg/kg |
| CN(C(=O)Cc1cccc(N)c1)[C@H]1CC[C@@]2(O)[C@H]3Cc4ccc(O)c5c4[C@@]2(CCN3CC2CC2)[C@H]1O5 [Compound 138, 17-Cyclopropylmethyl-3,14β-dihydroxy-4,5α-epoxy-6α-(N-methyl-3-aminophenylacetamido)morphinan.cndot.1.1 tartrate] | 0.014 mg/kg |
| Cc1occc1/C=C/C(=O)N(C)[C@@H]1CC[C@@]2(O)[C@H]3Cc4ccc(O)c5c4[C@@]2(CCN3CC2CC2)[C@H]1O5.Cl (relative stereo) [Compound 159, 17-cyclopropylmethyl-3,14β-dihydroxy-4,5α-epoxy-6β-[N-methyl-trans-3-(2-methyl-3-furyl)acrylamido]morphinan hydrochloride] | 0.0032 mg/kg |
| COc1ccc2c3c1O[C@H]1[C@@H](N(C)C(=O)Cc4ccc(Cl)c(Cl)c4)CC[C@@]4(O)[C@@H](C2)N(CC2CC2)CC[C@]314 [Compound 142, 17-cyclopropylmethyl-4,5α-epoxy-14β-hydroxy-3-methoxy-6α-(N-methyl-3,4-dichlorophenylacetamido)morphinan.cndot.tartrate] | 0.78 mg/kg |
| CN(C(=O)CC1CCCCC1)[C@H]1CC[C@@]2(O)[C@H]3Cc4ccc(O)c5c4[C@@]2(CCN3CC2CC2)[C@H]1O5 [Compound 85] | 0.113 mg/kg |
| CN(C(=O)Cc1cccc(N=C=S)c1)[C@H]1CC[C@@]2(O)[C@H]3Cc4ccc(O)c5c4[C@@]2(CCN3CC2CC2)[C@H]1O5 [Compound 149, 17-cyclopropylmethyl-3,14β-dihydroxy-4,5α-epoxy-6α-(N-methyl-3-isothiocyanatophenylacetamido)morphinanan.cndot.methanesulfonate] | 0.013 mg/kg |
| CCCCN1CC[C@]23c4c5ccc(O)c4O[C@H]2[C@H](N(C)C(=O)/C=C/c2ccoc2)CC[C@@]3(O)[C@H]1C5.O=C(O)C(O)C(O)C(=O)O (relative stereo) [Compound 163, 17-butyl-3,14β-dihydroxy-4,5α-epoxy-6β-[N-methyl-trans-3-(3-furyl)acrylamido]morphinan tartrate] | 0.37 mg/kg |
| CN(C(=O)OCc1ccccc1)[C@H]1CC[C@@]2(O)[C@H]3Cc4cccc5c4[C@@]2(CCN3CC2CC2)[C@H]1O5 [Compound 74, 17-cyclopropylmethyl-14β-hydroxy-4,5α-epoxy-6α-(N-methylbenzyloxycarbamido)morphinan.cndot.phosphate] | 0.78 mg/kg |
| CN(C(=O)/C=C/c1ccc(Cl)c(Cl)c1)[C@@H]1CC[C@@]2(O)[C@H]3Cc4ccc(O)c5c4[C@@]2(CCN3CC2CC2)[C@H]1O5 [Compound 179, 17-cyclopropylmethyl-3,14β-dihydroxy-4,5α-epoxy-6β-(N-methyl-3,4-dichlorocinnamamido)morphinan hydrochloride] | 0.0028 mg/kg |
| COc1ccc(C#CC(=O)N(C)[C@H]2CC[C@@]3(O)[C@H]4Cc5ccc(O)c6c5[C@@]3(CCN4CC3CC3)[C@H]2O6)cc1.O=C(O)C(O)C(O)C(=O)O [Compound 187, 17-cyclopropylmethyl-3,14β-dihydroxy-4,5α-epoxy-6α-[N-methyl-3-(4-methoxyphenyl)propiolamido]morphinan tartrate] | 0.026 mg/kg |
| CN(C(=O)OCc1cccnc1)[C@H]1CC[C@@]2(O)[C@H]3Cc4ccc(O)c5c4[C@@]2(CCN3CC2CC2)[C@H]1O5 [Compound 44, 17-cyclopropylmethyl-4,5α-epoxy-3,14β-dihydroxy-6α-[N-methyl-(3-pyridyl)methyloxycarbamido]morphinan.cndot.tartrate] | 0.084 mg/kg |
| COc1ccc(C#CC(=O)N(C)[C@@H]2CC[C@@]3(O)[C@H]4Cc5ccc(O)c6c5[C@@]3(CCN4CC3CC3)[C@H]2O6)cc1.Cl [Compound 176, 17-cyclopropylmethyl-3,14β-dihydroxy-4,5α-epoxy-6β-[N-methyl-3-(4-methoxyphenyl)propiolamido]morphinan hydrochloride] | 0.11 mg/kg |
| CN(C(=O)CCC1CCCCC1)[C@H]1CC[C@@]2(O)[C@H]3Cc4ccc(O)c5c4[C@@]2(CCN3CC2CC2)[C@H]1O5 [Compound 94, 17-cyclopropylmethyl-3,14β-dihydroxy-4,5α-epoxy-6α-(N-methyl-3-cyclohexylpropionamido)morphinan.cndot.hydrochloride] | 0.013 mg/kg |
| CN(C(=O)CCc1cccnc1)[C@H]1CC[C@@]2(O)[C@H]3Cc4ccc(O)c5c4[C@@]2(CCN3CC2CC2)[C@H]1O5 [Compound 41, 17-cyclopropylmethyl-3,14β-dihydroxy-4,5α-epoxy-6α-[N-methyl-3-(3-pyridyl)propionamido]morphinan.cndot.tartrate] | 0.39 mg/kg |
| Cc1ccc(C#CC(=O)N(C)[C@H]2CC[C@@]3(O)[C@H]4Cc5ccc(O)c6c5[C@@]3(CCN4CC3CC3)[C@H]2O6)cc1.Cl [Compound 183, 17-cyclopropylmethyl-3,14β-dihydroxy-4,5α-epoxy-6α-[N-methyl-3-(4-methylphenyl)propiolamido]morphinan hydrochloride] | 0.013 mg/kg |
| CN(C(=O)CCCCc1ccccc1)[C@@H]1CC[C@@]2(O)[C@H]3Cc4ccc(O)c5c4[C@@]2(CCN3CC2CC2)[C@H]1O5 [Compound 203, 17-cyclopropylmethyl-3,14β-dihydroxy-4,5α-epoxy-6β-(N-methyl-5-phenylpentanoamido)morphinan hydrochloride] | 0.38 mg/kg |
| CN(C(=O)Cc1cccc2sccc12)[C@H]1CC[C@@]2(O)[C@H]3Cc4ccc(O)c5c4[C@@]2(CCN3CC2CC2)[C@H]1O5 [Compound 106, 17-cyclopropylmethyl-3,14β-dihydroxy-4,5α-epoxy-6α-(N-methyl-4-benzo[b]thienylacetamido)morphinan.cndot.hydrochloride] | 0.25 mg/kg |
| CN(C(=O)C#Cc1ccco1)[C@@H]1CC[C@@]2(O)[C@H]3Cc4ccc(O)c5c4[C@@]2(CCN3CC2CC2)[C@H]1O5.Cl [Compound 175, 17-cyclopropylmethyl-3,14β-dihydroxy-4,5α-epoxy-6β-[N-methyl-3-(2-furyl)propiolamido]morphinan hydrochloride] | 0.018 mg/kg |

Same assay, conditions: s.c. 15 minutes before acetic acid

| SMILES | ED50 |
| --- | --- |
| Cc1ccc(C#CC(=O)N(C)[C@@H]2CC[C@@]3(O)[C@H]4Cc5ccc(O)c6c5[C@@]3(CCN4CC3CC3)[C@H]2O6)cc1.Cl [Compound 171, 17-cyclopropylmethyl-3,14β-dihydroxy-4,5α-epoxy-6β-[N-methyl-3-(4-methylphenyl)propiolamido]morphinan hydrochloride] | 0.038 mg/kg |
